Results reported in ChEMBL document CHEMBL1201862, “PubChem BioAssay data set” (2004).
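Assay format: 96-well plates, 48-hour exposure. At the GI50, growth is halved.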 Active and inactive are the calls of the source. No stated cut-off is given here; in the data, active = GI50 up to about 1.1 µM and inactive = higher.

What was measured:
Assay in all cases: NCI anticancer screen, dose series, 48 h
[1] = test system: 786-0
[2] = test system: CAKI-1
[3] = test system: DU-145
[4] = test system: HCT-116
[5] = test system: HOP-92
[6] = test system: IGROV-1
[7] = test system: KM12
[8] = test system: MCF7
[9] = test system: MDA-MB-435
[10] = test system: NCI-H522
[11] = test system: NCI/ADR-RES
[12] = test system: OVCAR-3
[13] = test system: OVCAR-4
[14] = test system: SF-295
[15] = test system: SK-MEL-28
[16] = test system: SK-MEL-2
[17] = test system: SK-OV-3
[18] = test system: SNB-19
[19] = test system: NCI-H226

Compound	GI50 [1]	GI50 [2]	GI50 [3]	GI50 [4]	GI50 [5]	GI50 [6]	GI50 [7]	GI50 [8]	GI50 [9]	GI50 [10]	GI50 [11]	GI50 [12]	GI50 [13]	GI50 [14]	GI50 [15]	GI50 [16]	GI50 [17]	GI50 [18]	GI50 [19]
COc1ccc(C(=O)N(C(=S)OCCOc2ccccc2)c2ccccc2)cc1	47.9 µM (inactive)	47 µM (inactive)	37.1 µM (inactive)	29.2 µM (inactive)	20 µM (inactive)	> 100 µM (inactive)	31.3 µM (inactive)	42 µM (inactive)	31.7 µM (inactive)	23.7 µM (inactive)	37.2 µM (inactive)	38 µM (inactive)	24.5 µM (inactive)	29.2 µM (inactive)	> 100 µM (inactive)	22.9 µM (inactive)	52.7 µM (inactive)	83.8 µM (inactive)	–
COC(=O)C1=C(C)NC(CF)=C(C(=O)OC)C1c1cccc2c(=O)c3ccccc3oc12 (stereo not drawn)	7.38 µM (inactive)	11.9 µM (inactive)	90.4 µM (inactive)	5.2 µM (inactive)	3.88 µM (inactive)	2.37 µM (inactive)	5.51 µM (inactive)	4.94 µM (inactive)	3.15 µM (inactive)	6.31 µM (inactive)	2.79 µM (inactive)	4.85 µM (inactive)	10.2 µM (inactive)	3.31 µM (inactive)	16 µM (inactive)	20.4 µM (inactive)	26.5 µM (inactive)	–	> 100 µM (inactive)
CSC1=N/C(=C\c2ccc(C)cc2)C(=O)N1CN1CCOCC1	44.7 µM (inactive)	–	76 µM (inactive)	35.7 µM (inactive)	> 100 µM (inactive)	28.2 µM (inactive)	91.8 µM (inactive)	31.2 µM (inactive)	99.8 µM (inactive)	97.5 µM (inactive)	19.5 µM (inactive)	> 100 µM (inactive)	0.622 µM (active)	> 100 µM (inactive)	> 10 µM (inactive)	> 100 µM (inactive)	> 100 µM (inactive)	37.5 µM (inactive)	31.3 µM (inactive)
O=C(CN1CCOCC1)Nc1ccc2c(c1)C1Oc3ccccc3CC1CO2 (stereo not drawn)	> 100 µM (inactive)	> 100 µM (inactive)	> 100 µM (inactive)	> 100 µM (inactive)	> 100 µM (inactive)	> 100 µM (inactive)	> 100 µM (inactive)	> 100 µM (inactive)	> 100 µM (inactive)	> 100 µM (inactive)	> 100 µM (inactive)	> 100 µM (inactive)	–	> 100 µM (inactive)	–	> 100 µM (inactive)	> 100 µM (inactive)	> 100 µM (inactive)	> 100 µM (inactive)
Cc1nc2c(O)cc3c4c(=O)n(C)c(=O)n(C)c4n(Cc4ccccc4)c3c2nc1C	17 µM (inactive)	–	18.3 µM (inactive)	14.4 µM (inactive)	13.8 µM (inactive)	–	21.2 µM (inactive)	15.8 µM (inactive)	17.4 µM (inactive)	–	25.8 µM (inactive)	–	11.1 µM (inactive)	50.5 µM (inactive)	14.3 µM (inactive)	18 µM (inactive)	17.1 µM (inactive)	18.6 µM (inactive)	21.6 µM (inactive)
O=[N+]([O-])C(=C(N1CCCCC1)N1CCCCC1)/C(Cl)=C(\Cl)Br	23.9 µM (inactive)	13.3 µM (inactive)	30.8 µM (inactive)	14.2 µM (inactive)	19.4 µM (inactive)	25.8 µM (inactive)	23.1 µM (inactive)	21.9 µM (inactive)	20.5 µM (inactive)	18.1 µM (inactive)	27.2 µM (inactive)	29.3 µM (inactive)	24 µM (inactive)	54.5 µM (inactive)	19.5 µM (inactive)	–	48.1 µM (inactive)	26.4 µM (inactive)	20.8 µM (inactive)
CC(=O)NC1C(OCc2ccccc2)OC(CO)C(O)C1OC(C)C(=O)NC(C(=O)NC(CCC(=O)Nc1ccc2c(c1)CN1C(=O)c3ccccc3C1=N2)C(N)=O)C(C)C (stereo not drawn)	> 100 µM (inactive)	> 100 µM (inactive)	> 100 µM (inactive)	> 100 µM (inactive)	> 100 µM (inactive)	> 100 µM (inactive)	> 100 µM (inactive)	> 100 µM (inactive)	> 100 µM (inactive)	–	> 100 µM (inactive)	> 100 µM (inactive)	> 100 µM (inactive)	> 100 µM (inactive)	> 100 µM (inactive)	> 100 µM (inactive)	> 100 µM (inactive)	> 100 µM (inactive)	–
C[Si](C)(OCCS(=O)(=O)O)OC(=C1S(=O)(=O)OCCOS1(=O)=O)c1cccc2ccccc12	> 100 µM (inactive)	> 100 µM (inactive)	> 100 µM (inactive)	> 100 µM (inactive)	> 100 µM (inactive)	72.9 µM (inactive)	> 100 µM (inactive)	67.6 µM (inactive)	> 100 µM (inactive)	–	> 100 µM (inactive)	36.5 µM (inactive)	> 100 µM (inactive)	> 100 µM (inactive)	> 100 µM (inactive)	> 100 µM (inactive)	–	> 100 µM (inactive)	> 100 µM (inactive)
